Assay results published in BindingDB's records for doi:10.1016/j.bioorg.2014.02.001 (University of Delhi, 2014).

Legend:
[1] = biological target: Proto-oncogene tyrosine-protein kinase Src (c-Src); test: The kinase reaction was initiated with the incubation of the 2.5 µL of the reaction cocktail (0.7 nM of His6-Src kinase domain in kinase buffer) with 2.5 µL of prediluted compounds (dissolved in 10% DMSO, 4X target concentration) for 10 min at room temperature. The reaction cocktail contained 200 mM HEPES (pH 7.5), 16 mM MgC
[2] = biological target: T1, 3-phosphoinositide-dependent protein kinase 1 (Homo sapiens, UniProt O15530); test: EGFR, MAPK and PDK Inhibitory Acitivity Assay; settings: pH 7
T1 sequence (O15530 whole entry): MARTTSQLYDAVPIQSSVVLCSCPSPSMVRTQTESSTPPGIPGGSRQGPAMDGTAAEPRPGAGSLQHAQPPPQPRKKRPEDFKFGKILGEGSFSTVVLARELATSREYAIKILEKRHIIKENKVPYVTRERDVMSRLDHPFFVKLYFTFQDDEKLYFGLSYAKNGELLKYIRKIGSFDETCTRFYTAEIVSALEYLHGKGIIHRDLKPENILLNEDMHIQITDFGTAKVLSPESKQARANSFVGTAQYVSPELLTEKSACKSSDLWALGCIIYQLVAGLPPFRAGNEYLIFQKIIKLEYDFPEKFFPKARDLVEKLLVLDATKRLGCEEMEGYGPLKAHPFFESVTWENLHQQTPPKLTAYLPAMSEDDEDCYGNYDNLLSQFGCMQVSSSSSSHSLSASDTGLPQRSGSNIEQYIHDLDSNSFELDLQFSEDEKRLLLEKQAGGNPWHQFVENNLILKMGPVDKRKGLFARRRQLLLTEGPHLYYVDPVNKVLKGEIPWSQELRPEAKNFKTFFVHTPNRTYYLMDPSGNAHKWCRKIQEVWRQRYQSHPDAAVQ
Method: (§1) EGFR was incubated with 8 mM MOPS (pH 7.0), 0.2 mM EDTA, 10 mM MnCl2, 0.1 mg/mL poly(Glu, Tyr) 4:1. MAPK1 was incubated with 25 mM Tris (pH 7.5), 0.02 mM EGTA, 250 µM substrate peptide (MAPK1-peptide), whereas PDK1 was incubated with 50 mM Tris (pH 7.5), 100 µM […] (PDKtide). The incubation was followed by the addition of 10 mM magnesium acetate and gamma-P33-ATP to each kinase. The kinase reactions were initiated with the addition of Mg:ATP mixture and stopped after 40 min of incubation with the addition of 3% phosphoric acid solution.

[3] = biological target: T2, Epidermal growth factor receptor [1-973] (Homo sapiens, UniProt P00533); test: EGFR, MAPK and PDK Inhibitory Acitivity Assay; settings: pH 7
T2 construct: 1-973
T2 sequence (P00533 1-973): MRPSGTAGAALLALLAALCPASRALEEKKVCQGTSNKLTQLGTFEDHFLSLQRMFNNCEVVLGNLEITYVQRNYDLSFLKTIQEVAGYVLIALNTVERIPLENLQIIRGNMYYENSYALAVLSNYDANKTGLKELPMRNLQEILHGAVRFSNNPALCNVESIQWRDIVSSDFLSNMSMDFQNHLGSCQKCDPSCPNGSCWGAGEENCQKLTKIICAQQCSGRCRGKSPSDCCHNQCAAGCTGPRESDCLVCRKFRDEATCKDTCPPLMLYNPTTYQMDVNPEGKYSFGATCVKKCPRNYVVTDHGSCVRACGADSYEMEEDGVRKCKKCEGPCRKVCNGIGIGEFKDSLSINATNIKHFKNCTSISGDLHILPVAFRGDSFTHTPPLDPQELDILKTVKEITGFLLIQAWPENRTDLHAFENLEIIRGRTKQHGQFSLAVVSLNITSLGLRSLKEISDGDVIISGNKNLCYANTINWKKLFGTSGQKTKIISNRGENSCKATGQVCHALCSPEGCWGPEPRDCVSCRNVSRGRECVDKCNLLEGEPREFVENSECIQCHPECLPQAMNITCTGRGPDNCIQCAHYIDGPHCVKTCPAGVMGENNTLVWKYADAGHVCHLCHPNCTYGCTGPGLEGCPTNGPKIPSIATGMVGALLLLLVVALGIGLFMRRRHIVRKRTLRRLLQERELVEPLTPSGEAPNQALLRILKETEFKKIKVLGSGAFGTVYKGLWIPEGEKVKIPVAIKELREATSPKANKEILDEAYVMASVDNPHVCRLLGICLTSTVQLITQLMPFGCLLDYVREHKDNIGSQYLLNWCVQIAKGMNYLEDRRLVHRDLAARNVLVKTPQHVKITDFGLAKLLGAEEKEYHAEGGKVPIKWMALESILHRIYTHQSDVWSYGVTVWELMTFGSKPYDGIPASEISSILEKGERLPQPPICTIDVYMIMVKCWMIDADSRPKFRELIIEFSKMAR
Method: as §1

[4] = biological target: Mitogen-activated protein kinase 1 (Homo sapiens, UniProt P28482); test: EGFR, MAPK and PDK Inhibitory Acitivity Assay; settings: pH 7
Chain of Mitogen-activated protein kinase 1 (P28482 whole entry): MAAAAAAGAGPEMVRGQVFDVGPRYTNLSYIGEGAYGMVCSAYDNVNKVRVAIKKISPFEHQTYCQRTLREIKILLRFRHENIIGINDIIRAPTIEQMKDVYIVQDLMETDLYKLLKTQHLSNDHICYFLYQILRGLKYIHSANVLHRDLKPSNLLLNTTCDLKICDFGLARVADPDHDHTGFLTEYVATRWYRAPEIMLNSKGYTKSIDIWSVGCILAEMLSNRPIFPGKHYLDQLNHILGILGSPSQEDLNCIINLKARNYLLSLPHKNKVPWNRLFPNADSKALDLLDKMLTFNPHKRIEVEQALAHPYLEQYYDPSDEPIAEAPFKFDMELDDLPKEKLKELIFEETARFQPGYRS
Method: as §1

Row | IC50 [1] | further results | Compound
1 | 24.8 µM | – | COc1ccc(O)c(C(=O)c2ccc(=O)n(C3CCCCC3)c2)c1 [1-Cyclohexyl-5-(2-hydroxy-5-methoxybenzoyl)pyridin-2 (1H)-one (42)]
2 | 25.4 µM | – | O=C(c1ccc(=O)n(C2CCCCC2)c1)c1ccccc1O [1-Cyclohexyl-5-(2-hydroxybenzoyl)pyridin-2(1H)-one (30)]
3 | 34.1 µM | – | CCCCCCn1cc(C(=O)c2ccc(OC)cc2O)ccc1=O [1-Hexyl-5-(2-hydroxy-4-methoxybenzoyl)pyridin-2(1H)-one (34)]
4 | 23.5 µM | – | CCCCCCn1cc(C(=O)c2cc(OC)ccc2O)ccc1=O [1-Hexyl-5-(2-hydroxy-5-methoxybenzoyl)pyridin-2(1H)-one (41)]
5 | 28.1 µM | – | CCCCCCn1cc(C(=O)c2ccccc2O)ccc1=O [1-Hexyl-5-(2-hydroxybenzoyl)pyridin-2(1H)-one (28)]
6 | 12.5 µM | IC50 [2]: > 300 µM; IC50 [3]: > 300 µM; IC50 [4]: > 300 µM | COc1ccc(C(=O)c2ccc(=O)n(CCN(C)C)c2)c(O)c1 [1-[2-(Dimethylamino)ethyl]-5-(2-hydroxy-4-methoxybenzoyl) pyridin-2(1H)-one (36)]
7 | 28.2 µM | – | CN(C)CCn1cc(C(=O)c2ccccc2O)ccc1=O [1-[2-(Dimethylamino)ethyl]-5-(2-hydroxybenzoyl)pyridin-2(1H)-one (31)]
8 | 27.7 µM | – | CCCCCCn1cc(C(=O)c2ccc(O)cc2O)ccc1=O [5-(2,4-Dihydroxybenzoyl)-1-hexylpyridin-2(1H)-one (32)]
9 | 22.1 µM | – | CCCCCCn1cc(C(=O)c2cc(O)ccc2O)ccc1=O [5-(2,5-Dihydroxybenzoyl)-1-hexylpyridin-2(1H)-one (39)]
10 | 26.1 µM | – | CC(C)n1cc(C(=O)c2cc(O)ccc2O)ccc1=O [5-(2,5-Dihydroxybenzoyl)-1-isopropylpyridin-2(1H)-one (40)]
11 | 19.9 µM | – | COc1ccc(C(=O)c2ccc(=O)n(CCO)c2)c(O)c1 [5-(2-Hydroxy-4-methoxybenzoyl)-1-(2-hydroxyethyl)pyridin-2(1H)-one (38)]
12 | 47 µM | – | COc1ccc(C(=O)c2ccc(=O)n(C(C)C)c2)c(O)c1 [5-(2-Hydroxy-4-methoxybenzoyl)-1-isopropylpyridin-2(1H)-one (35)]
13 | 21.8 µM | – | CC(C)n1cc(C(=O)c2ccccc2O)ccc1=O [5-(2-Hydroxybenzoyl)-1-isopropylpyridin-2(1H)-one (29)]
14 | 20.1 µM | – | O=c1ccc(/C(=N\C2CCCCC2)c2ccccc2O)cn1C1CCCCC1 [(E)-1-Cyclohexyl-5-[(cyclohexylimino)(2-hydroxyphenyl)methyl]pyridin-2(1H)-one (45)]
15 | 37.9 µM | – | CC(C)/N=C(\c1ccc(=O)n(C(C)C)c1)c1ccccc1O [(E)-5-[(2-Hydroxyphenyl)(isopropylimino)methyl]-1-isopropylpyridin-2(1H)-one (44)]
16 | 57.8 µM | – | CC(C)(C)OC(=O)NCCn1cc(C(=O)c2ccc(O)cc2O)ccc1=O [t-Butyl [2-{5-(2,4-dihydroxybenzoyl)-2-oxopyridin-1(2H)-yl}ethyl]carbamate (33)]
17 | 27.6 µM | – | COc1ccc(C(=O)c2ccc(=O)n(CCNC(=O)OC(C)(C)C)c2)c(O)c1 [t-Butyl [2-{5-(2-hydroxy-4-methoxybenzoyl)-2-oxopyridin-1(2H)-yl}ethyl]carbamate (37)]
18 | 21.9 µM | – | COc1ccc(O)c(C(=O)c2ccc(=O)n(CCNC(=O)OC(C)(C)C)c2)c1 [t-Butyl [2-{5-(2-hydroxy-5-methoxybenzoyl)-2-oxopyridin-1(2H)-yl}ethyl]carbamate (43)]
